# Reference: patent US20200338094A1, “Use of a Heterocyclic Bcl-xL Inhibitor and Related Analogs for Removing Senescent Cells in the Treatment of Eye Diseases and Other Age-Related Conditions” (Unity Biotechnology, Inc., priority 2015, published 2020)
# pEC50, pKi: −log10 of the molar value.
# Columns and labels:
# [1] = molecular target: T1, Bcl-xL (Homo sapiens, UniProt Q07817); assay: Bcl inhibition homogeneous (AlphaScreen) binding assay, Bcl-xL; conditions: read-out: Binding Affinities (Ki ± SD) Bcl-xL
# T1 construct: purchased Sigma-Aldrich Co., St. Louis, Mo
# Source text: (§1) This assay uses a homogenous assay technology based on oxygen channeling that is marketed by PerkinElmer Inc., Waltham, Mass.: see Eglen et al., Current Chemical Genomics, 2008, 1, 2-10. The test compound is combined with the target Bcl protein and a peptide representing the corresponding cognate ligand, labeled with biotin. The mixture is then combined with streptavidin bearing luminescent donor beads and luminescent acceptor beads, which proportionally reduces luminescence if the compound has inhibited the peptide from binding to the Bcl protein.
# (§2) Bcl-2, Bcl-xL and Bcl-W are available from Sigma-Aldrich Co., St. Louis, Mo. Biotinylated BIM peptide (ligand for Bcl-2) and BAD peptide (ligand for Bcl-xL) are described in pre-grant publication US 2016/0038503 A1. AlphaScreen® Streptavidin donor beads and Anti-6×His AlphaLISA® acceptor beads are available from PerkinElmer.
# (§3) To conduct the assay, a 1:4 dilution series of the compound is prepared in DMSO, and then diluted in assay buffer. In a 96-well PCR plate, the following are combined: 10 μL peptide, 10 μL test compound, and 10 μL BCL protein. The assay plate is incubated in the dark at room temperature for 24 h. The next day, donor beads and acceptor beads are combined, and […] is added to each well. After incubating in the dark for 30 minute, luminescence is measured using a plate reader, and the affinity or degree of inhibition by each test compound is determined.
# (§4) The chosen compounds were further assayed to quantitatively determine the actual affinity for Bcl-xL, Bcl-2, and Bcl-w with a view to identifying candidate senolytic agents for use in treating age related conditions. FIGS. 2A, 2B, and 2C show the results of the binding assay, with those compounds towards the left of each graph having the highest affinity.
# [2] = system: senescent fibroblasts (SnCs), IMR90 cells; assay: Senolytic activity: killing senescent (irradiated) IMR90 fibroblasts, CellTiter-Glo; assay type: cell-based, human; conditions: for pEC50: killing senescent (irradiated) fibroblasts in culture, read-out: Best SnCs EC50; for SI (specificity for senescent cells): senescent vs non-senescent cells of the same tissue type; for senolytic potency (EC50), in words: killing senescent cells
# Source text: Human fibroblast IMR90 cells can be obtained from the American Type Culture Collection (ATCC®) with the designation CCL-186. The cells are maintained at <75% confluency in DMEM containing FBS and Pen/Strep in an atmosphere of 3% O2, 10% CO2, and 95% humidity. The cells are divided into three groups: irradiated cells (cultured for 14 days after irradiation prior to use), proliferating normal cells (cultured at low density for one day prior to use), and quiescent cells (cultured at high density for four day prior to use).
# On day 0, the irradiated cells are prepared as follows. IMR90 cells are washed, placed in T175 flasks at a density of 50,000 cells per mL, and irradiated at 10-15 Gy. Following irradiation, the cells are plated at […] in 96-well plates. On days 1, 3, 6, 10, and 13, the medium in each well is aspirated and replaced with fresh medium.
# On day 10, the quiescent healthy cells are prepared as follows. IMR90 cells are washed, covered with 3 mL of TrypLE trypsin-containing reagent (Thermofisher Scientific, Waltham, Mass.) and cultured for 5 min until the cells have rounded up and begin to detach from the plate. Cells are dispersed, counted, and prepared in medium at a concentration of 50,000 cells per mL. 100 µL of the cells is plated in each well of a 96-well plate. Medium is changed on day 13.
# On day 13, the proliferating healthy cell population is prepared as follows. Healthy IMR90 cells are washed, covered with 3 mL of TrypLE and cultured for 5 minutes until the cells have rounded up and begin to detach from the plate. Cells are dispersed, counted, and prepared in medium at a concentration of 25,000 cells per mL. 100 µL of the cells is plated in each well of a 96-well plate.
# On day 14, test senolytic agents are combined with the cells as follows. A DMSO dilution series of each test compound is prepared at 200 times the final desired concentration in a 96-well PCR plate. Immediately before use, the DMSO stocks are diluted 1:200 into prewarmed complete medium. Medium is aspirated from the cells in each well, and 100 µL/well of the compound containing medium is added.
# The test senolytic agents are cultured with the cells for 6 days, replacing the culture medium with fresh medium and the same compound concentration on day 17. Bcl-2 inhibitors such as those tested in the examples that follow are cultured with the cells for 3 days. The assay system uses the properties of a thermostable luciferase to enable reaction conditions that generate a stable luminescent signal while simultaneously inhibiting endogenous ATPase released during cell lysis. At the end of the culture period, 100 µL of CellTiter-Glo@ reagent (Promega Corp., Madison, Wis.) is added to each of the wells. The cell plates are placed for 30 seconds on an orbital shaker, and luminescence is measured.
# Furthermore, even if the compound is potent, it would not be suitable for use as a therapeutic unless it preferentially kills senescent cells with a high degree of selectivity. Accordingly, compounds in the library showing high Bcl binding affinity were further screened for their ability to kill irradiated fibroblasts, in comparison with replicating fibroblasts or fibroblasts that were quiescent (due to confluence) but not senescent.
# [3] = molecular target: T2, Bcl-2 (Homo sapiens, UniProt P10415); assay: Bcl inhibition homogeneous (AlphaScreen) binding assay, Bcl-2; conditions: read-out: Binding Affinities (Ki ± SD) Bcl-2
# T2 construct: purchased Sigma-Aldrich Co., St. Louis, Mo
# Source text: as §1, §2, §3, §4
# [4] = molecular target: T3, Bcl-w (Homo sapiens, UniProt Q92843); assay: Bcl inhibition homogeneous (AlphaScreen) binding assay, Bcl-w; conditions: read-out: Binding Affinities (Ki ± SD) Bcl-w
# T3 construct: purchased Sigma-Aldrich Co., St. Louis, Mo
# T3 sequence (Q92843 1-193): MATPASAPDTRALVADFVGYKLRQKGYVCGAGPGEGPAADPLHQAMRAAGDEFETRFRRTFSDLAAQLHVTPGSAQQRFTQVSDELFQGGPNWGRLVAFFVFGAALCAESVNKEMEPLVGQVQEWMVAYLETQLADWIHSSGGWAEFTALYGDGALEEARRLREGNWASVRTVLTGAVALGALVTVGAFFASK
# Source text: as §1, §2, §3, §4
# [5] = molecular target: Bcl isoforms; assay: Binding affinity for the Bcl isoforms; conditions: Bcl-xL, Bcl-2, Bcl-w
# Source text: as §1, §2, §3, §4
# T2 sequence (P10415 whole entry, species assumed): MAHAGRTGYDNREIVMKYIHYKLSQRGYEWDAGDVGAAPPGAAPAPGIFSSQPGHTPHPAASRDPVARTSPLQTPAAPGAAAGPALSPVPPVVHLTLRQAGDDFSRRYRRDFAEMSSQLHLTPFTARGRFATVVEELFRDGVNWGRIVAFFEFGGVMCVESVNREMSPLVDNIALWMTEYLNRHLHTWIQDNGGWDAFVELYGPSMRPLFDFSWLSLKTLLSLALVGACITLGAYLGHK
# T1 sequence (Q07817 whole entry, species assumed): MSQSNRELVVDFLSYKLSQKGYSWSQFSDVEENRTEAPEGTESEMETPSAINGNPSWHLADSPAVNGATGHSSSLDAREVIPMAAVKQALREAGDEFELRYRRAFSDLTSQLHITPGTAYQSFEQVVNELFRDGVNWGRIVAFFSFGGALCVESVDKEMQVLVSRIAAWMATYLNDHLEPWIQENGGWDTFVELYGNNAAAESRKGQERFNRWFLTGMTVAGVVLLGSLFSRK
SMILES,pKi [1],pKi [3],pKi [4],"binding affinities (Ki) for the Bcl isoforms, in words [5]",pEC50 [2],SI (specificity for senescent cells) [2],"senolytic potency (EC50), in words [2]"
Cc1c(S(C)(=O)=O)c(-c2cc(F)cc(N3CCN(c4ccc(NS(=O)(=O)c5ccc(N[C@H](CCN6CCC(C(=O)O)CC6)CSc6ccccc6)c(S(=O)(=O)C(F)(F)F)c5)cc4)CC3)c2)c(-c2ccc(Cl)cc2)n1C(C)C [BM-1244],9.87,9.35,9.45,nanomole to picomole range,6.52,66.7,–
Cc1c(S(C)(=O)=O)c(-c2cc(F)cc(N3CCN(c4ccc(NS(=O)(=O)c5ccc(N[C@H](CCN6CCC(O)CC6)CSc6ccccc6)c(S(=O)(=O)C(F)(F)F)c5)cc4)CC3)c2)c(-c2ccc(F)cc2)n1C(C)C [BM-1195],9.83,9.18,9.76,nanomole to picomole range,8.22,128.7,potent in the nanomole range
Cc1c(S(C)(=O)=O)c(-c2cc(F)cc(N3CCN(c4ccc(NS(=O)(=O)c5ccc(N[C@H](CCN6CCC(O)CC6)CSc6ccccc6)c(S(=O)(=O)C(F)(F)F)c5)cc4)CC3)c2)c(-c2ccc(Cl)cc2)n1C(C)C [BM-1197],9.53,9.35,9.54,nanomole to picomole range,8.30,366.7,potent in the nanomole range
CCn1c(C)c(S(C)(=O)=O)c(-c2cc(F)cc(N3CCN(c4ccc(NS(=O)(=O)c5ccc(N[C@H](CCN6CCC(O)CC6)CSc6ccccc6)c(S(=O)(=O)C(F)(F)F)c5)cc4)CC3)c2)c1-c1ccc(F)cc1 [BM-1192],–,–,–,–,7.30,60.0,–

# Second part, led by results:
pKi [1],pKi [3],pKi [4],"binding affinities (Ki) for the Bcl isoforms, in words [5]",SMILES,pEC50 [2],SI (specificity for senescent cells) [2],"senolytic potency (EC50), in words [2]"
10.24,8.47,9.27,–,Cc1c(C(=O)O)c(-c2cccc(N3CCN(c4ccc(NS(=O)(=O)c5ccc(N[C@H](CCN6CCC(O)CC6)CSc6ccccc6)c(S(=O)(=O)C(F)(F)F)c5)cc4)CC3)c2)c(-c2ccc(Cl)cc2)n1C(C)C [BM-962],6.70,18.5,–
11.24,9.75,9.79,nanomole to picomole range,CCn1c(C)c(C(=O)NS(C)(=O)=O)c(-c2cccc(N3CCN(c4ccc(NS(=O)(=O)c5ccc(N[C@H](CCN(C)C)CSc6ccccc6)c([N+](=O)[O-])c5)cc4)CC3)c2)c1-c1ccc(Cl)cc1 [BM-1075],6.52,15.3,–
10.34,8.48,9.18,–,CCn1c(C)c(C(=O)O)c(-c2cccc(N3CCN(c4ccc(NS(=O)(=O)c5ccc(N[C@H](CCN6CCC(O)CC6)CSc6ccccc6)c(S(=O)(=O)C(F)(F)F)c5)cc4)CC3)c2)c1-c1ccc(Cl)cc1 [BM-957],6.52,11.7,–
